# Laboratory results published in patent US20070105810A1, “THERAPEUTICS” (priority 2003, published 2007).
# “Also recorded” adds a separate entry of the source.
# Tests used:
# [1] = system: T cell receptor/CD3 complex mediated Ca2+ signalling; test: T cell receptor/CD3 complex mediated Ca2+ signalling in human T cells; type: cell-based
# Description: Intact Jurkat T-lymphocytes were loaded with fura2/AM. Ratiometric determination of [Ca^2+]i was carried out in cell suspension in a Hitachi F2000 fluorometer at room temperature at excitation wavelengths of 340 and 380 nm (alternating) and an emission wavelength of 495 nm. Each experiment was calibrated by addition of Triton X100 (10% v/v final concentration) to obtain the maximal ratio and subsequent addition of 4 mM EGTA/40 mM Tris-base to obtain the minimal ratio.
# [Ca^2+]i was measured by using the fluorescent indicator Fura2/AM. In brief, 10^7 cells were loaded with Fura2/AM, and fluorescence was determined in batches of 1.5×10^6 cells with an Hitachi F-2000 fluorimeter at excitation and emission wavelengths of 340 and 380 nm (exc.) and 505 nm (em.), respectively. Measurements were carried out at 20° C. At the end of each single measurement maximal and minimal ratios were determined by addition of Triton X-100 and EGTA/Tris.
# OVA-specific T cells = test: Proliferation of cultured OVA-specific T cells; type: cell-based
# rat MBP-specific T cells = test: Cytokine (IL2 mRNA) expression of in vitro-cultured MBP-specific T cells, quantitative PCR; type: cell-based; conditions: IL2 quantitative PCR after 48 h
# Description: Cells were stimulated in presence of MBP-pulsed irradiated APCs and increasing concentrations of BZ194. After 48 h cells were collected for cytofluorometric cell count A and RNA extraction was performed for quantitative PCR analysis (IL2) B. Effect of BZ194 on pre-activated T cell blasts C. Amplification of MBP-specific T cells which had been incubated before in the presence of DMSO or 0.5 mM or 1 mM BZ194 D.
# (§1) mRNA was extracted using standard protocols (Sigma-Aldrich) and reversed to cDNA (Invitrogen). Taqman analysis was performed as reported (Flügel et al. 2001, Immunity) using ABI Prim 7700 Sequence Detector “Taqman” (PE Applied Biosystems). The expression of a housekeeping gene (b-actin) was set into relation to the specific mRNA. Data were obtained by independent duplicate measurements.
# BZ194 strongly influenced the function of rat MBP-specific T cells in vitro and in vivo. Proliferation and cytokine expression of the T cells was tested in vitro after incubation with irradiated MBP-pulsed thymic antigen presenting cells (in rats the commonly used APC type, ref. 5). […] Additionally, the expression of cytokine production by the T cells was reduced (FIG. 18B). Importantly, these effects were not due to toxicity of BZ194.
# TMBP-GFP cells = test: Intravital videomicroscopy: motility of TMBP-GFP cells in the spleen; type: in vivo, rat; conditions: 3 d after T cell transfer, 6.5 μm/min in DMSO-treated controls, preliminary
# Description: Intravital videomicroscopy of the spleen of vehicle (DMSO, left) A or BZ194 B-treated animals 3 d after T cell transfer. The ratio between stationary and motile MBP-specific GFP T cells (upper graphs) and cell trajectories (lower graphs, 10 min analysis) are shown. Stationary cells are defined as cells moving less than 10 μm in 10 minutes.
# Animals were anesthetized by intraperitoneal injection of xylazine/ketamine (10 mg/kg and 50 mg/kg, respectively), with reapplied doses (1 mg/kg xylazine/5 mg/kg ketamine) administered as required. Adequate oxygenation was ensured by an oxygen (95% O2/5% CO2) mask fixed on the animal's snout. Body temperature was controlled by a heated pad. For spleen imaging temperature and moistness controlled chambers were constructed for inverted microscope settings. Surgically exposed spleens with intact vasculature were carefully placed into the chambers superfused with carbogenated HBSS (95% O25% CO2).
# Time-lapse recordings were performed using an inverted microscope (Zeiss, Axiovert 200M) equipped with a 20×, 0.4 NA objective (Zeiss). Images were acquired using a Coolsnap-HQ camera (Photometrics, Roper Scientific, Tuscon, Ariz.) in 30 s time intervals and processed by MetaMorph (Visitron Systems, Puchheim, Germany). Image J software (freeware, provided by Wayne Rasband, NIH) was used to evaluate cell trajectories and velocity.
# [2] = system: cytokine production (IL-2, IFNγ, TNFα, IL-2 receptor mRNA); test: Quantitative PCR of cytokine mRNA in spinal cord and spleen of EAE animals; type: in vivo, rat; conditions: spinal cord tissue 4 days after T cell transfer; BZ194 5 d, 500 μmol; relative to β actin and CD3
# Description: Quantitative PCR of spinal cords and spleens 4 days after T cell transfer of animals treated with vehicle (DMSO) of BZ 194 (5 d, 500 μmol). IFNg A,B and IL-2 C,D mRNAs were measured in relation to housekeeping gene β actin A,C or T cell marker CD3 B,D.
# as §1
structure (smiles),measurement,setting,value
"CCCCCCCCNC(=O)C[n+]1cccc(C(=O)O)c1.[Br-] [BZ194, 3-Carboxy-1-Octylcarbamoylmethyl-Pyridinium]",TCR/CD3 complex mediated Ca2+ signalling,[1],partially blocked
same,proliferation,OVA-specific T cells,anti-proliferative effect
same,cytokine (mRNA) production in vitro,rat MBP-specific T cells,suppressed; also recorded: reduced
same,average velocity of TMBP-GFP cells,TMBP-GFP cells,3.5 μm/min
same,cytokine (mRNA) production ex vivo,[2],suppressed; also recorded: significant reduction
